For this test, the target named is T1, Interleukin-1 receptor-associated kinase 4 (Homo sapiens, UniProt Q9NWZ3).
T1 sequence (Q9NWZ3 whole entry): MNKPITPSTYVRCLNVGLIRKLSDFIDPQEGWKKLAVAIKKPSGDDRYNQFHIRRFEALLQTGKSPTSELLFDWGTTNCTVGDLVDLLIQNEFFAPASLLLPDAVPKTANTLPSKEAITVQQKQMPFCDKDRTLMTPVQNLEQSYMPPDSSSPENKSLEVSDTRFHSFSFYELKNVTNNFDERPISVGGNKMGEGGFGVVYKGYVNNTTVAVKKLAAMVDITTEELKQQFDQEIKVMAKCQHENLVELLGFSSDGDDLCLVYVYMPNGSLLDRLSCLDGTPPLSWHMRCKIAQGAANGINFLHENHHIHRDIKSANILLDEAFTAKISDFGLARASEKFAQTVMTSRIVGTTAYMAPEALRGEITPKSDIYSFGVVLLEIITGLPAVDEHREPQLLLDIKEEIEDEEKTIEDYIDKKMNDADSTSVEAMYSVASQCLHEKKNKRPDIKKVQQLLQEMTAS
Nature of the test: Inhibition Assay: The assays were performed in U-bottom 384-well plates. […] The reaction was initiated by the combination of IRAK4 with substrates and test compounds. The reaction mixture was incubated at room temperature for 60 min. and terminated by adding 45 μL of 35 mM EDTA to each sample. […] The final concentrations of reagents in the assays are ATP, 500 μM; FL-[…] peptide 1.5 μM; IRAK4, 0.6 nM; and DMSO, 1.6%.
Usually IC50 stands for the concentration needed to halve the response being measured. In the case of `CCNC(=O)[C@H]1CC[C@H](NC(=O)c2cnc(Nc3ncc(C#N)cc3F)cc2NC(C)C)CC1`, the IC50 stood at 9.4 nM.
In the case of `CC(C)Nc1cc(Nc2ccc(C#N)cn2)ncc1C(=O)NC1CCC(O)(c2ccnn2C)CC1` (stereo unspecified) it was 4.6 nM; in that of `CC(C)Nc1cc(Nc2nc(OC3CCNCC3)ncc2Cl)ncc1C(=O)NC[C@@H](F)C(C)(C)O`, 19.9 nM; in that of `CC(=O)N[C@H]1CC[C@H](NC(=O)c2cnc(Nc3ncncc3Cl)cc2NC(C)C)CC1`, 16.8 nM.
In the case of `CC(C)(O)CNc1cc(Nc2ncc(C#N)cc2Cl)ncc1C(=O)NC[C@@H](F)C(C)(C)O`, the IC50 worked out at 9.3 nM.
Turning to `CC(C)(O)[C@H](F)CNC(=O)c1cnc(Nc2ncc(C#N)cc2Cl)cc1NC1CCOCC1`, the 50% inhibitory concentration (IC50) was determined as 2.1 nM.
With `COC[C@H](F)CNC(=O)c1cnc(Nc2ncc(C#N)cc2F)cc1NC(C)C`, the IC50 was 12.6 nM.
In the case of `CC(C)Nc1cc(Nc2ncc(C#N)cc2Cl)ncc1C(=O)NC1CCC(C(C)(C)O)CC1` (stereo unspecified) it was 4.1 nM; in that of `CNC(=O)[C@H]1CC[C@H](NC(=O)c2cnc(Nc3ccc(C#N)cn3)cc2NC(C)C)CC1`, 5.6 nM.
In the case of `CC(C)(O)[C@H](F)CNC(=O)c1cnc(Nc2ncncc2Cl)cc1NC1CC1` it was 5.5 nM.
`CS[C@H]1CC[C@H](NC(=O)c2cnc(Nc3ncc(C#N)cc3F)cc2NC(C)C)CC1`: the IC50 was determined as 12.5 nM.

The values are drawn from ChEMBL document CHEMBL5725996, “Heteroaryl substituted pyridyl compounds useful as kinase modulators” (2017).
